Assay results reported in ChEMBL document CHEMBL1155000, “Discovery of a novel series of Notch-sparing gamma-secretase inhibitors” (Bioorg Med Chem Lett, 2008).

Columns and labels:
[1] = Inhibition of gamma-secretase expressed in CHO cells expressing wild type human recombinant APP assessed as reduction in amyloid beta40 production
[2] = (§1) Inhibition of mouse notch expressed in CHO cells assessed as transactivation of soluble alkaline phosphatase reporter system; assay type: cell-based
[3] = Selectivity ratio of EC50 for gamma-secretase to EC50 for mouse notch
[4] = tested on: CHO; test: as §1; assay type: cell-based

## CC[C@@H](C)[C@@H](CO)NS(=O)(=O)c1ccc(Cl)cc1
[1]
  EC50: 0.758 µM

## CC[C@H](C)[C@@H](CO)NS(=O)(=O)c1ccc(C(C)=O)cc1
[1]
  EC50: 6.02 µM

## CCOC(=O)N1CCC(c2ccccc2)(S(=O)(=O)c2ccc(Cl)cc2)CC1
[2]
  EC50: 0.746 µM
[1]
  EC50: 12.2 µM
[3]
  Ratio EC50: 8.8

## CC[C@H](C)[C@@H](CO)NS(=O)(=O)c1cccc(Cl)c1Cl
[1]
  EC50: 4.27 µM

## CC[C@@H](CO)NS(=O)(=O)c1ccc(Cl)cc1
[1]
  EC50: > 100 µM

## CC[C@H](C)[C@@H](CO)NS(=O)(=O)c1ccc(C)cc1
[1]
  EC50: 14.3 µM

## C[C@@H](CO)NS(=O)(=O)c1ccc(Cl)cc1
[1]
  EC50: > 100 µM

## CC[C@H](C)[C@@H](CO)NC(=O)Nc1ccc(Cl)cc1
[1]
  EC50: 47.3 µM

## CC[C@H](C)[C@@H](CO)NS(=O)(=O)c1ccc(F)cc1
[1]
  EC50: 4.24 µM

## C[C@H](NC(=O)[C@@H](O)c1cc(F)cc(F)c1)C(=O)N[C@@H]1C(=O)N(C)N=Cc2ccccc21
[4]
  Ratio EC50: 0.5
[1]
  EC50: 0.0003 µM

## CC[C@H](C)[C@@H](CO)NS(=O)(=O)c1ccccc1
[1]
  EC50: 4.15 µM

## CC[C@H](C)[C@@H](CO)NS(=O)(=O)c1ccc(C(F)(F)F)cc1
[1]
  EC50: 13.1 µM

## CC[C@H](C)[C@@H](CO)NS(=O)(=O)c1ccc(C#N)cc1
[1]
  EC50: > 100 µM

## CC[C@H](C)[C@H](NS(=O)(=O)c1ccc(Cl)cc1)C(C)O (some centres undefined)
[1]
  EC50: 49.3 µM

## CC[C@H](C)[C@@H](CO)NS(=O)(=O)c1ccc([N+](=O)[O-])cc1
[1]
  EC50: 20.9 µM

## CC[C@H](C)[C@@H](CO)NS(=O)(=O)c1ccc(Cl)c(Cl)c1
[1]
  EC50: 37 µM

## CC(C)[C@H](O)C(=O)N[C@@H](C)C(=O)N[C@@H]1C(=O)N(C)CCc2ccccc21
[2]
  EC50: 0.063 µM
[1]
  EC50: 0.028 µM

## CC[C@H](C)[C@@H](CO)NS(=O)(=O)c1ccc(Cl)cc1
[2]
  EC50: 20 µM
[1]
  EC50: 5.45 µM

## CC[C@H](C)[C@@H](CO)NS(=O)(=O)c1cc(Cl)ccc1Cl
[1]
  EC50: 54.8 µM

## CC[C@H](C)[C@@H](CO)NCc1ccc(Cl)cc1
[1]
  EC50: > 100 µM

## CC(C)(C)[C@@H](CO)NS(=O)(=O)c1ccc(Cl)cc1
[1]
  EC50: 29.1 µM

## CC[C@H](C)[C@@H](CO)NS(=O)(=O)c1ccc(S(C)(=O)=O)cc1
[1]
  EC50: > 100 µM

## CC[C@H](C)[C@@H](CO)NS(=O)(=O)c1ccc(Cl)c(F)c1
[1]
  EC50: 7.84 µM

## CC[C@H](C)[C@H](NS(=O)(=O)c1ccc(Cl)cc1)C(=O)O
[1]
  EC50: > 100 µM

## O=S(=O)(N[C@H](CO)c1ccccc1)c1ccc(Cl)cc1
[1]
  EC50: 68.8 µM

## CC[C@H](C)[C@@H](CO)NS(=O)(=O)Nc1ccc(Cl)cc1
[1]
  EC50: > 30 µM

## C[C@H](c1ccc(F)cc1CCCC(=O)O)N(c1cc(F)ccc1F)S(=O)(=O)c1ccc(Cl)cc1
[1]
  EC50: 0.007 µM
[3]
  Ratio EC50: 15

## CC[C@H](C)[C@@H](CO)NS(=O)(=O)c1ccc(Br)cc1
[2]
  EC50: 20 µM
[1]
  EC50: 2.21 µM

## CC[C@H](C)[C@H](NS(=O)(=O)c1ccc(Cl)cc1)C(C)(C)O
[1]
  EC50: > 100 µM

## CC[C@H](C)[C@@H](CO)NS(=O)(=O)c1cc(Cl)cc(Cl)c1
[1]
  EC50: 23.5 µM

## CC[C@H](C)[C@@H](CO)NS(=O)(=O)c1ccc(OC(F)(F)F)cc1
[1]
  EC50: 23.5 µM

## CC[C@H](C)[C@@H](CO)NS(=O)(=O)c1ccccc1Cl
[1]
  EC50: 56.6 µM

## CC[C@H](C)[C@@H](CO)NC(=O)c1ccc(Cl)cc1
[1]
  EC50: > 100 µM

## CCC(CC)[C@@H](CO)NS(=O)(=O)c1ccc(Cl)cc1
[2]
  EC50: 4.09 µM
[1]
  EC50: 0.294 µM
[3]
  Ratio EC50: 13.9

## CC[C@H](C)[C@@H](CO)NC(=O)Cc1ccc(Cl)cc1
[1]
  EC50: > 100 µM

## CCCNC(=O)OC[C@@H](C)N(c1cc(Cl)ccc1CO)S(=O)(=O)c1ccc(Cl)cc1
[1]
  EC50: 0.085 µM

## CC[C@H](C)[C@@H](CO)NS(=O)(=O)c1cccc(Cl)c1
[1]
  EC50: 18.3 µM

## CC(C)[C@@H](CO)NS(=O)(=O)c1ccc(Cl)cc1
[1]
  EC50: 4.58 µM

## O=S(=O)(N[C@H](CO)C1CCCCC1)c1ccc(Cl)cc1
[1]
  EC50: 1.12 µM

## CC(C)C[C@@H](CO)NS(=O)(=O)c1ccc(Cl)cc1
[1]
  EC50: 15.3 µM
